In US8642656B2, “Calixarene-based peptide conformation mimetics, methods of use, and methods of making” (priority 2004, dated 2014):
“Also recorded” adds a separate entry of the source. Where two headings read alike, the source gives them in different places.

Key:
[1] = test system: LPS from E. coli serotype 0111:B4; assay: LPS neutralization assay (Limulus amoebocyte lysate, QCL-1000); format: biochemical; settings: read-out: IC50 values (μM) for LPS binding, E. coli 0111:B4
Source text: (§1) The ability of compounds to neutralize endotoxin was detected in vitro by using the chromogenic QCL-1000 kit from BioWhittaker, Inc. (Walkersville, Md.), and as described in their protocol. This Limulus amoebocyte lysate (LAL) assay is quantitative for Gram negative bacterial endotoxin (lipopolysaccharide, LPS). In this assay compounds that are active inhibit the LPS-mediated activation of a proenzyme whose active form would release p-nitroaniline (pNA) from a colorless synthetic substrate producing a yellow color (pNA) whose absorption is monitored spectrophotometrically at 405-410 nm. The initial rate of enzyme activation is proportional to the concentration of endotoxin present.
(§2) Variants of LPS from six Gram negative bacteria were used: E. coli serotypes 0111:B4 (Combrex, Walkersville, Md.) and 055:B5 (Sigma, St. Louis, Mo.); Klebsiella pneumoniae (List Biologies, San Jose, Calif.); Pseudomonas aeruginosa (List Biologies, San Jose, Calif.); Salmonella typhimurium (List Biologies, San Jose, Calif.), and Serratia marcascens (List Biologies, San Jose, Calif.). The concentration of compound required to neutralize a given LPS and therefore to inhibit the Limulus amoebocyte lysate driven by 0.04 units of any given LPS was determined by dose response curves fit by using a standard sigmoidal function to determined the JC50 value for each lopomimetic compound. The 0.04 units corresponds to 0.01 ng LPS from E. coli serotype 055:B5, 0.01 ng LPS from E. coli serotype 0111:B4, 0.003 ng LPS from K. pneumoniae, 0.01 ng LPS from P. aeruginosa, 0.03 ng LPS from S. typhimurium, and 0.03 ng LPS from S. marcascens.

[2] = test system: LPS from E. coli serotype 055:B5; assay: as above; format: biochemical
Source text: as §1, §2

[3] = test system: LPS from P. aeruginosa; assay: as above; format: biochemical, Pseudomonas aeruginosa; settings: read-out: IC50 values (μM) for LPS binding, P.a.
Source text: as §1, §2

[4] = test system: LPS from K. pneumoniae; assay: as above; format: biochemical, Klebsiella pneumoniae; settings: read-out: IC50 values (μM) for LPS binding, Klebsiella
Source text: as §1, §2

[5] = test system: LPS from S. typhimurium; assay: as above; format: biochemical, Salmonella typhimurium; settings: read-out: IC50 values (μM) for LPS binding, Salmonella
Source text: as §1, §2

[6] = test system: LPS from S. marcascens; assay: as above; format: biochemical, Serratia marcascens; settings: read-out: IC50 values (μM) for LPS binding, Serratia
Source text: as §1, §2

[7] = test system: LPS from six species of bacteria; assay: LPS neutralization assay, overall statements; format: biochemical; settings: library of 23 compounds
Source text: as §1
as §2, with “The 0.04 units corresponds to 0.01 ng LPS from E. coli serotype 055:B5, 0.01 ng LPS from E. coli serotype 0111:B4, 0.003 ng LPS from K. pneumoniae, 0.01 ng LPS from P. aeruginosa, 0.03 ng LPS from S. typhimurium, and 0.03 ng LPS from S. marcascens.” left out

[8] = test system: endothelial cell (EC); assay: EC Proliferation Assay, [3H]thymidine incorporation (Example 36, Table 1); format: cell-based; settings: read-out: EC proliferation IC50 (conc)
Method: Human umbilical vein derived EC(HUVEC) were harvested from normal human umbilical cords by perfusion with 0.125% trypsin/EDTA as described in Groenewegen et al., J. Exp. Med. 164, 131-143 (1986). For determination of quiescent EC phenotype isolated ECs were immediately fixed in 1% paraformaldehyde. Human microvascular ECs (MVECs) were isolated. ECs were cultured in fibronectin coated tissue culture flasks in culture medium (RPMJ-1640 with 20% human serum (HS), supplemented with 2 mM glutamine and 100 U/ml penicillin and 0.1 mg/ml streptomycin).
EC proliferation was measured using a [^3H]thymidine incorporation assay. ECs were seeded at 5000 cells/well in flatbottomed tissue culture plates and grown for 3 days, in the absence or presence of regulators, in culture medium. During the last 6 hours of the assay, the culture was pulsed with 0.5μ Ci [methyl-^3H]thymidine/well.

[9] = test system: E. coli J96; assay: Bactericidal assay on J96; format: cell-based; settings: for IC50: read-out: Bacterial activity on J96 IC50 (conc)
Source text: Pseudomonas aeruginosa type 1 is a clinical, smooth strain isolate stereotyped by using the scheme of Homma et al., Japan. J. Exp. Med. 46, 329-336 (1976) and maintained in the lab by monthly transfer on blood agar plates. E. coli J96, IA2, and H5 are smooth strain, uropathogenic clinical isolates kindly maintained and provided by J. R. Johnson and described in Johnson et al., J. Infect. Disease 173, 920-926 (1996) for J96 and IA2 and in Johnson et al., J. Infect. Disease 173, 746-749 (1996) for H5. J5 is an E. coli rough strain initially referenced by G. R. Siber and discussed in Warren et al., Infect. Immunity 55, 1668-1673 (1987) and is analogous to the smooth strain E. coli 0111:B4 used in the BioWhittaker LAL endotoxin detection and quantitation kit described below. Gram-positive MN8 and MNHO are two patient isolates of Staphylococcus aureus, which were kindly provided by P. M. Schlievert and described in Bohach et al., Rev. Infect. Diseases 11, 75-82 (1989) for MNHO and in Schlievert et al., J. Infect. Diseases 147, 236-242 (1983) for MN8. All cultures are maintained on nutrient agar plates.
Pyrogen-free solutions were used throughout the assay. Log phase bacteria were obtained by transferring an overnight culture or scraping crystals off-85° C glycerol stocks of overnight cultures. Bacteria were washed and resuspended in 0.9% sodium chloride with adjustment to an optical density at 650 nm which yields 3×10^8 CFU/ml. Bacteria were then diluted 1:10 in 0.08 M citrate phosphate buffer, pH 7.0 (prepared by mixing 0.08 M citric acid with 0.08 M dibasic sodium phosphate). Bacteria (0.15 ml) were incubated with the test compound in a final volume of 1.0 ml of buffer. The assay was done in 17×100 polypropylene tubes in a reciprocal water bath shaker at 37° C for 30 minutes. Following this 30 minute (min) incubation. 10-fold dilutions were made in 0.9% sodium chloride. Dilutions were done to 10^−4 and 20 μl of each dilution was streaked across an agar plate. Gram-positive organisms were plated on nutrient agar plates containing 2% agar and Gram-negative organisms were plated on MacConkey agar (2%). Plates were incubated overnight at 37° C and counted the next morning. The dilution containing 10-100 bacteria was counted and the number multiplied by 50 to adjust all counts to the number bacteria killed per milliliter. Compound concentrations were converted to logarithm base ten and graphed. Bactericidal activity was determined by dose response where LD50 values were determined by best fits of a sigmoidal curve to the dose response data.

[10] = Solubility (Table 1); format: physicochemical; settings: footnotes: 3 mM in 100% DMSO or ethanol → 0.03 mM in H2O
[11] = test system: EC; assay: EC % apoptosis (Table 1); format: cell-based, human
[12] = test system: EC; assay: EC % total cell death (Table 1); format: cell-based, human
[13] = test system: Fibro; assay: Other cells, Fibro (Table 1); format: cell-based
[14] = Hemolysis (Table 1); format: cell-based; settings: at 10^−6 M
[15] = Table 2, read-out: IC50 values (μM) for LPS binding, E. coli 055:B4
[16] = Table 3, errors estimated ±30%, read-out: IC50 values (μM) for LPS binding, E. coli 055:B5

Compound	IC50 ([1]; Table 2) [µM]	IC50 ([1]; Table 3, errors estimated ±30%) [µM]	IC50 [2, 15] [µM]	IC50 [2, 16] [µM]	IC50 ([3]; Table 2) [µM]	IC50 ([3]; Table 3, errors estimated ±30%) [µM]	IC50 ([4]; Table 2) [µM]	IC50 ([4]; Table 3, errors estimated ±30%) [µM]	IC50 ([5]; Table 2) [µM]	IC50 ([5]; Table 3, errors estimated ±30%) [µM]	IC50 ([6]; Table 2) [µM]	IC50 ([6]; Table 3, errors estimated ±30%) [µM]	IC50 [8] [µM]	IC50 [9] [nM]	Solubility (solvent, in words) [10]	also measured
CC(C)(C)c1cc2c(OCCCCN)c(c1)Cc1cc(C(C)(C)C)cc(c1OCCCCNC(=N)N)Cc1cc(C(C)(C)C)cc(c1OCCCCNC(=N)N)Cc1cc(C(C)(C)C)cc(c1OCCCCNC(=N)N)C2.O=C(O)C(F)(F)F [Compound 43, 5,11,17,23-Tetra-tert-butyl-25,26,27-tris(4-guanidinobutyroxy)-28-(4-aminobutyroxy) calix[4]arene trifloroacetic acid salt]	0.4	0.4	0.1	0.1	0.8	0.8	0.5	0.5	0.6	0.6	3.2	3.2				neutralizing LPS, ranking in words [7]: best LPS neutralizing compounds; also recorded: most effective for neutralizing LPS
CC(C)(C)c1cc2c(OCC(=O)NCCN)c(c1)Cc1cc(C(C)(C)C)cc(c1OCC(=O)NCCN)Cc1cc(C(C)(C)C)cc(c1OCC(=O)NCCN)Cc1cc(C(C)(C)C)cc(c1OCC(=O)NCCN)C2 [drawing 14]													> 25	> 3800	DMSO/H2O	
CN(C)CCNC(=O)COc1c2cc(C(C)(C)C)cc1Cc1cc(C(C)(C)C)cc(c1OCC(=O)NCCN(C)C)Cc1cc(C(C)(C)C)cc(c1OCC(=O)NCCN(C)C)Cc1cc(C(C)(C)C)cc(c1OCC(=O)NCCN(C)C)C2 [drawing 10]													> 25	1300	DMSO/H2O	EC % Apoptosis 25 μM [11]: No effect; EC % total cell death [12]: No effect; Other cells 25 μM, Fibro [13]: 100%; Hemolysis [14]: 100% at 10^−6 M
CC(C)(C)c1cc2c(O)c(c1)Cc1cc(C(C)(C)C)cc(c1OCCCCNC(=N)N)Cc1cc(C(C)(C)C)cc(c1OCCCCNC(=N)N)Cc1cc(C(C)(C)C)cc(c1OCCCCNC(=N)N)C2													> 25	1300	DMSO/H2O	
CN(C)CCNC(=O)COc1c2cc(C(C)(C)C)cc1Cc1cc(C(C)(C)C)cc(c1OCC(=O)NCCN(C)C)Cc1cc(C(C)(C)C)cc(c1OCC(=O)NCCN(C)C)Cc1cc(C(C)(C)C)cc(c1OCC(=O)NCCN(C)C)C2 [Compound 3]	> 5	> 5	4.4	> 5	> 5	> 5	0.08	> 5	4.1	> 5	> 5	> 5				bactericidal activity (in words) ([9]; in the micromolar range (Table 1)): reasonably good bactericidal activity
CC(C)(C)c1cc2c(O)c(c1)Cc1cc(C(C)(C)C)cc(c1OCCNC(=N)N)Cc1cc(C(C)(C)C)cc(c1O)Cc1cc(C(C)(C)C)cc(c1OCCN)C2.O=C(O)C(F)(F)F													> 25	2500	DMSO/H2O	
polymyxin B [PmxB, reference compound]	0.03	0.03	0.03	0.03	0.003	0.003	0.01	0.01	0.1	0.3	> 5	> 5				
CC(C)CCOc1c2cc(CCC(=O)NCCN(C)C)cc1Cc1cc(CCC(=O)NCCN(C)C)cc(c1OCCC(C)C)Cc1cc(CCC(=O)NCCN(C)C)cc(c1OCCC(C)C)Cc1cc(CCC(=O)NCCN(C)C)cc(c1OCCC(C)C)C2													> 25	1200	DMSO/H2O	
CC(C)CCOc1c2cccc1Cc1cc(CCCP(=O)(O)O)cc(c1O)Cc1cccc(c1OCCC(C)C)Cc1cc(CCCP(=O)(O)O)cc(c1O)C2 [Compound 48]	> 5	> 5	> 5	> 5	> 5	> 5	> 5	> 5	> 5	> 5	> 5	> 5				
